The assay has as its target T1, met (HGF receptor) in human gastric cancer cells MKN45 (Homo sapiens, UniProt P08581).
T1 construct: endogenous in cells; host or cells: MKN45 human gastric cancer cells
The assay can be described thus: Inhibitory activity against met-autophosphorylation using ELISA method (2), MKN45 cells, HGF-independent. The format is cell-based. The procedure, abridged:
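MKN45 cells, 3×10^4 per well in RPMI with 0.1% FCS overnight, were exposed to compound in DMSO for 1 h at 37 °C without HGF. Lysates were captured on anti-phosphotyrosine (PY20) plates, Met detected with anti-Met and peroxidase secondary antibody, absorbance at 450 nm.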
T1 sequence (P08581 25-1390): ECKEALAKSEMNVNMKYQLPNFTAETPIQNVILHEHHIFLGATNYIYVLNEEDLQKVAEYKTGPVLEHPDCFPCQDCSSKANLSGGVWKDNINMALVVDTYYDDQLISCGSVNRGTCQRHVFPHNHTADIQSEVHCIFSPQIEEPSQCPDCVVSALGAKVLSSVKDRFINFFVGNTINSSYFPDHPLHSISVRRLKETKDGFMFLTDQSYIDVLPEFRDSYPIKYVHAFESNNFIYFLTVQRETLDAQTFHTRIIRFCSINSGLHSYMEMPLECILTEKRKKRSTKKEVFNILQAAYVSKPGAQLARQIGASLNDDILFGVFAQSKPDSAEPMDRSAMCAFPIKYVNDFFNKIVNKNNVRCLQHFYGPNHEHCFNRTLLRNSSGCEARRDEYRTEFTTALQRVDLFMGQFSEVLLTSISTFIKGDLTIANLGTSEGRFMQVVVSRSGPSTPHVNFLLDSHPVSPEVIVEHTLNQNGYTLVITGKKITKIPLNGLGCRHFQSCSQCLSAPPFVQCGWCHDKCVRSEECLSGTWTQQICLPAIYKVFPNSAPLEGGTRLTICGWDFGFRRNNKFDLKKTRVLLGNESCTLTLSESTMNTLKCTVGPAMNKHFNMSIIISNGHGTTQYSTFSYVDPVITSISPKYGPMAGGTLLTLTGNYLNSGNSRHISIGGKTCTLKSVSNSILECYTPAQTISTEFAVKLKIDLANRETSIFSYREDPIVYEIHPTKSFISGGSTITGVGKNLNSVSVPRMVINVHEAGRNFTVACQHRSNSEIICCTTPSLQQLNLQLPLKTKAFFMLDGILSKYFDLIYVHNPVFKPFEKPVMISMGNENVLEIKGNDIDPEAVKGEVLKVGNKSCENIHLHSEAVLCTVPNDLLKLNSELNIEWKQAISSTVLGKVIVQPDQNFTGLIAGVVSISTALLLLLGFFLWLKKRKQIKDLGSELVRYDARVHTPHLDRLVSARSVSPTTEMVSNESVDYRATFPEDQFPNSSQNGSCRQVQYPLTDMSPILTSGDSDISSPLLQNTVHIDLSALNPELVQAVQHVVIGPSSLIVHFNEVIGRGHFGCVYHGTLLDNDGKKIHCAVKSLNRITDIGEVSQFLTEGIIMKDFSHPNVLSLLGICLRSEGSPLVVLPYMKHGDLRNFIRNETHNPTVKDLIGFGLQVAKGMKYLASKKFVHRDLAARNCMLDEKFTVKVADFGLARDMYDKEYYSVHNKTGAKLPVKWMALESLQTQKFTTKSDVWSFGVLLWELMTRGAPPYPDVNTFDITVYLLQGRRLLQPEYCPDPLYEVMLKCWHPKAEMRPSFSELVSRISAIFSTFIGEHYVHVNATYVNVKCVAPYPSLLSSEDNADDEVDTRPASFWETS
Turning to `COc1cc2c(Oc3ccc(NC(=O)NC(=O)Cc4ccc(F)cc4)cc3F)ccnc2cc1OCCN1CCCCC1` [Example 48, 1-{3-fluoro-4-[6-methoxy-7-(2-piperidin-1-yl-ethoxy)quinolin-4-yloxy]phenyl}-3-[2-(4-fluorophenyl)-acetyl]urea], half-maximal inhibition (IC50) was put at 224 nM. `COc1cc2nccc(Oc3ccc(NC(=S)NC(=O)Cc4c(F)ccc(F)c4F)cc3F)c2cc1OC` [Example 206, 1-[4-(6,7-dimethoxyquinolin-4-yloxy)-3-fluorophenyl]-3-[2-(2,3,6-trifluorophenyl)acetyl]-thiourea] returned an IC50 of 444 nM.

The compound `COc1cc2c(Oc3ccc(NC(=S)NC(=O)Cc4cccc(F)c4)cc3F)ccnc2cc1OCC(O)CN1CCCCC1` (stereo not shown) [Example 324, 1-{3-Fluoro-4-[7-(2-hydroxy-3-piperidin-1-yl-propoxy)-6-methoxy-quinolin-4-yloxy]-phenyl}-3-[2-(3-fluoro-phenyl)-acetyl]-thiourea] gave an IC50 of 23.4 nM.

Compound `COc1cc2nccc(Oc3ccc(NC(=O)CC(=O)Nc4ccc(F)cc4F)c(Cl)c3)c2cc1OC` [Example 222, N-[2-chloro-4-(6,7-dimethoxyquinolin-4-yloxy)phenyl]-N′-(2,4-difluorophenyl)malonamide] showed a concentration for half-maximal inhibition (IC50) of 201 nM. In the case of `COc1cc2nccc(Oc3ccc(NC(=S)NC(=O)CCCC(C)C)cc3F)c2cc1OC` [Example 179, 1-[4-(6,7-dimethoxyquinolin-4-yloxy)-3-fluorophenyl]-3-(5-methyl-hexanoyl)thiourea] it was 261 nM; in that of `COc1cc2nccc(Oc3ccc(NC(=S)NC(=O)CCc4ccccc4C)cc3F)c2cc1OC` [Example 64, 1-[4-(6,7-dimethoxyquinolin-4-yloxy)-3-fluoro-phenyl]-3-(3-o-tolylpropionyl)thiourea], 140 nM; in that of `COc1cc2c(Oc3ccc(NC(=S)NC(=O)Cc4ccccc4Cl)cc3F)ccnc2cc1OCC(O)CN1CCCCC1` (stereo not shown) [Example 316, 1-[2-(2-Chloro-phenyl)-acetyl]-3-{3-fluoro-4-[7-(2-hydroxy-3-piperidin-1-yl-propoxy)-6-methoxy-quinolin-4-yloxy]-phenyl}-thiourea], 188 nM.

In turn, `COc1cc2c(Oc3ccc(NC(=O)NC(=O)Cc4ccccc4F)cc3F)ccnc2cc1OCCCN1CCN(C)CC1` [Example 296, 1-(3-Fluoro-4-{6-methoxy-7-[3-(4-methyl-piperazin-1-yl)-propoxy]-quinolin-4-yloxy}-phenyl)-3-[2-(2-fluoro-phenyl)-acetyl]-urea] returned an IC50 of 19.7 nM.

In turn, `COc1cc2c(Oc3ccc(NC(=O)CC(=O)Nc4ccc(F)cc4)cc3F)ccnc2cc1OCCCN1CCOCC1` [Example 269, N-{3-fluoro-4-[6-methoxy-7-(3-morpholin-4-yl-propoxy)quinolin-4-yloxy]phenyl}-N′-(4-fluorophenyl)-malonamide] gave an IC50 of 12.5 nM. For `COc1cc2nccc(Oc3ccc(NC(=O)CC(=O)Nc4ccc(Cl)cc4)cc3)c2cc1OC` [Example 219, N-(4-chlorophenyl)-N′-[4-(6,7-dimethoxy-quinolin-4-yloxy)phenyl]malonamide] the value was 736 nM; for `COc1ccccc1CC(=O)NC(=S)Nc1ccc(Oc2ccnc3cc(OC)c(OC)cc23)cc1F` [Example 169, 1-[4-(6,7-dimethoxyquinolin-4-yloxy)-2-fluorophenyl]-3-[2-(2-methoxyphenyl)acetyl]thiourea], 276 nM; for `COc1cc2c(Oc3ccc(NC(=S)NC(=O)Cc4cccc(F)c4)cc3F)ccnc2cc1OCC(O)CN1CCCC1` (stereo not shown) [Example 325, 1-{3-Fluoro-4-[7-(2-hydroxy-3-pyrrolidin-1-yl-propoxy)-6-methoxy-quinolin-4-yloxy]-phenyl}-3-[2-(3-fluoro-phenyl)-acetyl]-thiourea], 18.5 nM. For `COc1cc2nccc(Oc3ccc(NC(=O)NC(=O)c4ccccc4C)c(F)c3)c2cc1OC` [Example 108, 1-[4-(6,7-dimethoxyquinolin-4-yloxy)-2-fluorophenyl]-3-(2-methyl-benzoyl)urea] the value was 2080 nM; for `COc1cc2nccc(Oc3ccc(NC(=S)NC(=O)Cc4cccc(C)c4)c(F)c3)c2cc1OC` [Example 175, 1-[4-(6,7-dimethoxyquinolin-4-yloxy)-2-fluorophenyl]-3-(2-m-tolylacetyl)thiourea], 955 nM; for `CCOCCC(=O)NC(=S)Nc1ccc(Oc2ccnc3cc(OC)c(OC)cc23)c(Cl)c1` [Example 159, 1-[3-chloro-4-(6,7-dimethoxyquinolin-4-yloxy)phenyl]-3-(3-ethoxypropionyl)thiourea], 585 nM.

On to `COc1cc2nccc(Oc3ccc(NC(=O)C(C)(C)C(=O)Nc4ccccc4)cc3)c2cc1OC` [Example 228, N-[4-(6,7-dimethoxyquinolin-4-yloxy)phenyl]-2,2-dimethyl-N′-phenylmalonamide], for which the IC50 turned out to be 394 nM. In the case of `CCOCCC(=O)NC(=S)Nc1ccc(Oc2ccnc3cc(OC)c(OC)cc23)cc1` [Example 62, 1-[4-(6,7-dimethoxyquinolin-4-yloxy)phenyl]-3-(3-ethoxypropionyl)thiourea] it was 92 nM.

Turning to `COc1cc2nccc(Oc3ccc(NC(=S)NC(=O)CC4C5CCC4CC5)cc3Cl)c2cc1OC` (stereo not shown) [Example 91, 1-(2-bicyclo[2.2.1]hepto-7-ylacetyl)-3-[3-chloro-4-(6,7-dimethoxyquinolin-4-yloxy)phenyl]thiourea], the IC50 was 40.1 nM.

On to `COc1cc2nccc(Oc3ccc(NC(=S)NC(=O)CCSC)cc3F)c2cc1OC` [Example 147, 1-[4-(6,7-dimethoxyquinolin-4-yloxy)-3-fluorophenyl]-3-(3-methylsulfanylpropionyl)thiourea], for which the IC50 worked out at 1170 nM. In the case of `COc1cc(Oc2ccnc3cc(OC)c(OC)cc23)ccc1NC(=S)NC(=O)Cc1ccsc1` [Example 86, 1-[4-(6,7-dimethoxyquinolin-4-yloxy)-2-methoxyphenyl]-3-(2-thiophen-3-ylacetyl)thiourea] it was 23.5 nM; in that of `COc1cc2nccc(Oc3ccc(NC(=O)NC(=O)Nc4ccc(Cl)cc4C)cc3)c2cc1OC` [Example 242, N-(4-chloro-2-methylphenyl)-({[4-(6,7-dimethoxyquinolin-4-yloxy)anilino]carbonyl}amino)-methanamide], 851 nM.

With `COc1cc2c(Oc3ccc(NC(=S)NC(=O)Cc4ccccc4F)cc3F)ccnc2cc1OCC(O)CN1CCCC1` (stereo not shown) [Example 319, 1-{3-Fluoro-4-[7-(2-hydroxy-3-pyrrolidin-1-yl-propoxy)-6-methoxy-quinolin-4-yloxy]-phenyl}-3-[2-(2-fluoro-phenyl)-acetyl]-thiourea], the concentration for half-maximal inhibition (IC50) was 127 nM.

With `COc1cc2nccc(Oc3ccc(NC(=S)NC(=O)COc4ccccc4)cc3Cl)c2cc1OC` [Example 157, 1-[3-chloro-4-(6,7-dimethoxyquinolin-4-yloxy)phenyl]-3-(2-phenoxyacetyl)thiourea], the IC50 is 482 nM. For `COc1cc2nccc(Oc3ccc(NC(=O)C(C)C(=O)Nc4ccc(F)cc4F)cc3)c2cc1OC` (stereo not shown) [Example 15, N-(2,4-difluorophenyl)-N′-[4-(6,7-dimethoxy-quinolin-4-yloxy)phenyl]-2-methylmalonamide], the IC50 was 302 nM. In the case of `COc1cc2nccc(Oc3ccc(NC(=O)NC(=O)CC4C5CCC4CC5)cc3F)c2cc1OC` (stereo not shown) [Example 127, 1-(2-bicyclo[2.2.1]hepto-7-ylacetyl)-3-[4-(6,7-dimethoxyquinolin-4-yloxy)-3-fluorophenyl]urea] it was 319 nM; in that of `COc1cc2nccc(Oc3ccc(NC(=S)NC(=O)c4cccc5ccccc45)cc3)c2cc1OC` [Example 56, 1-[4-(6,7-dimethoxyquinolin-4-yloxy)phenyl]-3-(naphthalene-1-carbonyl)thiourea], 140 nM. In the case of `COc1cc2nccc(Oc3ccc(NC(=S)NC(=O)c4ccc(C)s4)cc3)c2cc1OC` [Example 160, 1-[4-(6,7-dimethoxyquinolin-4-yloxy)phenyl]-3-(5-methylthiophen-2-carbonyl)thiourea] it was 1630 nM; in that of `CCN(CC)CCCOc1cc2nccc(Oc3ccc(NC(=O)NC(=O)Cc4ccccc4)cc3F)c2cc1OC` [Example 291, 1-{4-[7-(3-Diethylamino-propoxy)-6-methoxy-quinolin-4-yloxy]-3-fluoro-phenyl}-3-phenylacetyl-urea], 19.5 nM; in that of `COc1cc2nccc(Oc3ccc(NC(=S)NC(=O)Cc4cccc(C)c4)cc3)c2cc1OC` [Example 77, 1-[4-(6,7-dimethoxyquinolin-4-yloxy)phenyl]-3-(2-m-tolylacetyl)thiourea], 178 nM.

Turning to `COc1cc2c(Oc3ccc(NC(=S)NC(=O)Cc4ccccc4)cc3Cl)ccnc2cc1OCCCN1CCOCC1` [Example 300, 1-{3-Chloro-4-[6-methoxy-7-(3-morpholin-4-yl-propoxy)-quinolin-4-yloxy]-phenyl}-3-phenylacetyl-thiourea], 22.4 nM corresponded to half-maximal inhibition (IC50). In turn, `COc1cc2nccc(Oc3ccc(NC(=O)CC(=O)Nc4ccc(F)cc4F)cc3Cl)c2cc1OC` [Example 6, N-[3-chloro-4-(6,7-dimethoxyquinolin-4-yloxy)-phenyl]-N′-(2,4-difluorophenyl)malonamide] came in with an IC50 of 31.6 nM. For `COc1cc2c(Oc3ccc(NC(=O)NC(=O)Cc4ccccc4)cc3F)ccnc2cc1OCC(O)CN1CCOCC1` (stereo not shown) [Example 337, 1-{3-Fluoro-4-[7-(2-hydroxy-3-morpholin-1-yl-propoxy)-6-methoxy-quinolin-4-yloxy]-phenyl}-3-(2-phenyl-acetyl)-urea] the value was 22 nM; for `COc1cc2nccc(Oc3ccc(NC(=S)NC(=O)Cc4ccccc4F)cc3)c2cc1OC` [Example 151, 1-[4-(6,7-dimethoxyquinolin-4-yloxy)phenyl]-3-[2-(2-fluorophenyl)acetyl]thiourea], 256 nM.

As for `COc1cc2c(Oc3ccc(NC(=O)NC(=O)Cc4ccccc4)c(F)c3)ccnc2cc1OCCCN1CCOCC1` [Example 287], it took 22.5 nM to reach half-maximal inhibition (IC50).

For the origin of these results see patent publication US8324245B2, “Quinoline derivative and quinazoline derivative inhibiting self-phosphorylation of hepatocytus proliferator receptor, and medicinal composition containing the same” (Kyowa Hakko Kirin Co., Ltd., priority 2001, dated 2012).
